Measurements taken from DBAASP.
In brackets after ≈: the same amount, converted by molar mass.

Key:
Test in all cases: ≥ marks a high value that may be exact or a test limit, other limits are often not marked, values filed in µg/mL are converted to µM
[1] = test system: Batrachochytrium dendrobatidis JEL-197
[2] = test system: Candida albicans ATCC 90028
[3] = test system: Escherichia coli ATCC 25726
[4] = test system: Staphylococcus aureus ATCC 25923
[5] = test system: Bacillus subtilis AB91021
[6] = test system: Bacillus thuringiensis AB92037
Escherichia coli AB94012 = test system: Escherichia coli AB94012
[7] = test system: Pseudomonas aeruginosa AB93066
[8] = test system: Staphylococcus aureus AB94004
[9] = test system: Staphylococcus aureus P1369
[10] = test system: Staphylococcus aureus P1374
[11] = test system: Staphylococcus aureus P1381
[12] = test system: Staphylococcus aureus P1383
[13] = test system: Staphylococcus aureus P1386
[14] = test system: Staphylococcus aureus P969
[15] = test system: Staphylococcus epidermidis P1111
[16] = test system: Staphylococcus epidermidis P1368
[17] = test system: Staphylococcus epidermidis P1389
Staphylococcus sp. = test system: Staphylococcus sp.
Bacillus megaterium Bm11 = test system: Bacillus megaterium Bm11
[18] = test system: Bacillus subtilis ATCC 6633
Escherichia coli D21 = test system: Escherichia coli D21
[19] = test system: Proteus vulgaris OX19 ATCC 6380
[20] = test system: Pseudomonas aeruginosa OT97
[21] = test system: Shigella flexneri ATCC 203
[22] = test system: Staphylococcus aureus Cowan 1
[23] = test system: Staphylococcus aureus JC-1
Streptococcus mutans = test system: Streptococcus mutans
[24] = test system: Enterobacter cloacae NHTCC 53001
[25] = test system: Escherichia coli ATCC 25922
[26] = test system: Klebsiella pneumoniae KK3 9904
[27] = test system: Pseudomonas aeruginosa ATCC 27853
[28] = test system: Staphylococcus aureus NCTC 8325
[29] = test system: Candida albicans ATCC 20032
Escherichia coli ML-35p = test system: Escherichia coli ML-35p
Escherichia coli = test system: Escherichia coli
[30] = test system: Pseudomonas aeruginosa 08031014
[31] = test system: Pseudomonas aeruginosa PAO1
[32] = test system: Staphylococcus aureus ATCC 43300

CC[C@H](C)[C@H](NC(=O)CN)C(=O)N[C@@H](Cc1ccccc1)C(=O)N[C@@H](CO)C(=O)N[C@@H](C)C(=O)N[C@@H](CC(C)C)C(=O)N[C@@H](C)C(=O)N[C@@H](C)C(=O)NCC(=O)N[C@H](C(=O)N[C@@H](CCCCN)C(=O)N[C@@H](CC(C)C)C(=O)N[C@@H](CC(C)C)C(=O)NCC(=O)N[C@@H](CC(N)=O)C(=O)N[C@H](C(=O)N[C@@H](CC(C)C)C(=O)N[C@@H](Cc1ccccc1)C(=O)N[C@@H](CCCCN)C(=O)N[C@@H](CCSC)C(=O)N[C@@H](C)C(=O)NCC(=O)N[C@@H](CCCCN)C(=O)N[C@@H](C)C(=O)NCC(=O)N[C@@H](C)C(=O)N[C@@H](CCC(=O)O)C(=O)N[C@@H](Cc1cnc[nH]1)C(=O)N[C@@H](CC(C)C)C(=O)N[C@@H](C)C(=O)N[C@H]1CSSC[C@@H](C(=O)O)NC(=O)[C@H](CCC(N)=O)NC(=O)[C@H](CC(N)=O)NC(=O)[C@H]([C@@H](C)O)NC(=O)[C@H](C)NC(=O)[C@H](CCCCN)NC1=O)[C@@H](C)O)C(C)C [GIFSALAAGVKLLGNTLFKMAGKAGAEHLACKATNQC]
MIC [1]: 12.5 µM (≈ 46.3 µg/mL)
MIC [2]: ≥ 50 µM
MIC [3]: 25 µM (≈ 92.6 µg/mL)
MIC [4]: 12.5 µM (≈ 46.3 µg/mL)

CC[C@H](C)[C@H](NC(=O)[C@H](CC(C)C)NC(=O)[C@H](CO)NC(=O)[C@H](CCCCN)NC(=O)[C@@H](NC(=O)[C@H](CC(C)C)NC(=O)[C@H](CCCN=C(N)N)NC(=O)[C@H](Cc1ccccc1)NC(=O)[C@@H](N)CC(C)C)[C@@H](C)CC)C(=O)N[C@@H](CCCCN)C(=O)N[C@@H](CCCN=C(N)N)C(=O)N[C@@H](CC(C)C)C(=O)N[C@H](C(=O)N[C@@H](CO)C(=O)N[C@@H](C)C(=O)N[C@@H](Cc1ccccc1)C(=O)N[C@@H](CCCCN)C(N)=O)C(C)C [LFRLIKSLIKRLVSAFK]
MIC [5]: 12.3 µM (≈ 25 µg/mL)
MIC [6]: 12.3 µM (≈ 25 µg/mL)
MIC (Escherichia coli AB94012): 6.15 µM (≈ 12.5 µg/mL)
MIC [7]: ≥ 49.2 µM
MIC [8]: 2.46 µM (≈ 5 µg/mL)
MIC [9]: 3.94 µM (≈ 8 µg/mL)
MIC [10]: 3.94 µM (≈ 8 µg/mL)
MIC [11]: 9.84 µM (≈ 20 µg/mL)
MIC [12]: 4.92 µM (≈ 10 µg/mL)
MIC [13]: 12.3 µM (≈ 25 µg/mL)
MIC [14]: 19.7 µM (≈ 40 µg/mL)
MIC [15]: 9.84 µM (≈ 20 µg/mL)
MIC [16]: 3.94 µM (≈ 8 µg/mL)
MIC [17]: 3.94 µM (≈ 8 µg/mL)
MIC (Staphylococcus sp.): 2.46 µM (≈ 5 µg/mL)

CC[C@H](C)[C@H](NC(=O)[C@H](CCCCN)NC(=O)[C@@H](NC(=O)[C@@H](NC(=O)[C@H](CCC(N)=O)NC(=O)CNC(=O)[C@H](Cc1cnc[nH]1)NC(=O)[C@H](CCC(N)=O)NC(=O)[C@H](CC(N)=O)NC(=O)[C@H](CCC(N)=O)NC(=O)[C@@H](N)C(C)C)C(C)C)C(C)C)C(=O)N[C@@H](Cc1ccccc1)C(=O)N[C@@H](Cc1cnc[nH]1)C(=O)N[C@@H](Cc1cnc[nH]1)C(=O)O [VQNQHGQVVKIFHH]
MIC (Bacillus megaterium Bm11): ≥ 4800 µM
MIC [18]: ≥ 6000 µM
MIC (Escherichia coli D21): ≥ 6000 µM
MIC [19]: ≥ 6000 µM
MIC [20]: ≥ 6000 µM
MIC [21]: ≥ 4800 µM
MIC [22]: ≥ 6000 µM
MIC [23]: ≥ 3200 µM

CC[C@H](C)[C@H](NC(=O)[C@H](CCC(=O)O)NC(=O)[C@H](CCCCN)NC(=O)[C@@H](NC(=O)[C@H](CC(N)=O)NC(=O)[C@H](CCC(=O)O)NC(=O)[C@H](C)NC(=O)[C@H](CC(C)C)NC(=O)[C@@H](N)CCCCN)C(C)C)C(=O)N[C@@H](CC(C)C)C(=O)N[C@@H](CCCN=C(N)N)C(=O)O [KLAENVKEILR]
MIC (Streptococcus mutans): ≥ 190 µM

CC[C@H](C)[C@H](NC(=O)[C@H](Cc1cnc[nH]1)NC(=O)[C@H](CCCCN)NC(=O)CNC(=O)[C@H](C)NC(=O)[C@@H](NC(=O)[C@H](CCCCN)NC(=O)[C@H](CC(C)C)NC(=O)[C@@H](NC(=O)CNC(=O)[C@H](CCCCN)NC(=O)[C@H](CC(C)C)NC(=O)[C@@H](NC(=O)[C@H](CO)NC(=O)[C@H](CCSC)NC(=O)[C@H](CC(C)C)NC(=O)CN)C(C)C)C(C)C)[C@@H](C)O)C(=O)N[C@@H](Cc1ccccc1)C(=O)N[C@@H](CCCCN)C(=O)N[C@@H](CC(N)=O)C(=O)N[C@H](C(=O)NCC(=O)NCC(=O)N[C@@H](CO)C(=O)N[C@@H](CC(C)C)C(=O)N[C@@H](CC(C)C)C(=O)N[C@@H](CC(=O)O)C(=O)N[C@@H](CCC(N)=O)C(=O)N[C@@H](C)C(=O)N[C@@H](CCCCN)C(=O)N[C@H]1CSSC[C@@H](C(=O)O)NC(=O)[C@H](CCC(N)=O)NC(=O)CNC(=O)[C@H]([C@@H](C)O)NC(=O)[C@H]([C@@H](C)CC)NC(=O)[C@H](CCCCN)NC1=O)C(C)C [GLMSVLKGVLKTAGKHIFKNVGGSLLDQAKCKITGQC]
MIC [2]: ≥ 100 µM
MIC [24]: 6 µM (≈ 23.1 µg/mL)
MIC [25]: 3 µM (≈ 11.5 µg/mL)
MIC [26]: 6 µM (≈ 23.1 µg/mL)
MIC [27]: 3 µM (≈ 11.5 µg/mL)
MIC [28]: 25 µM (≈ 96.1 µg/mL)

CC[C@H](C)[C@H](NC(=O)[C@H](CCCCN)NC(=O)[C@@H](NC(=O)[C@H](Cc1c[nH]c2ccccc12)NC(=O)[C@H](CS)NC(=O)[C@H](CCCNC(=N)N)NC(=O)[C@@H]1CCCN1C(=O)[C@H](CCCNC(=N)N)NC(=O)[C@H](CC(C)C)NC(=O)[C@H](CO)NC(=O)[C@@H](N)CCCCN)[C@@H](C)CC)C(=O)N[C@@H](CCCCN)C(=O)N[C@@H](Cc1ccccc1)C(=O)N[C@@H](CCCNC(=N)N)C(=O)N[C@@H](CS)C(=O)N[C@@H](CCCCN)C(=O)N[C@@H](CO)C(=O)N[C@@H](CC(C)C)C(=O)N[C@@H](CCCCN)C(=O)N[C@@H](Cc1ccccc1)C(=O)O [KSLRPRCWIKIKFRCKSLKF]
MIC [18]: ≥ 39.4 µM
MIC [29]: 3.7 µM (≈ 9.38 µg/mL)
MIC [25]: 7.39 µM (≈ 18.8 µg/mL)
MIC (Escherichia coli ML-35p): 7.39 µM (≈ 18.8 µg/mL)
MIC (Escherichia coli): 20.9 µM (≈ 53 µg/mL)
MIC [30]: 14.8 µM (≈ 37.5 µg/mL)
MIC [27]: 3.7 µM (≈ 9.38 µg/mL)
MIC [31]: 3.7 µM (≈ 9.38 µg/mL)
MIC [4]: 3.7 µM (≈ 9.38 µg/mL)
MIC [32]: 3.7 µM (≈ 9.38 µg/mL)
